Test results as given in patent publication US20230357162A1, “COMPOUNDS, COMPOSITIONS AND METHODS” (Denali Therapeutics Inc., priority 2020, published 2023).
pIC50: −log10 of the molar value.

System: IL-1β secretion, THP-1 cells
Assay: IL-1β secretion assay in PMA-differentiated THP-1 cells stimulated with LPS and nigericin (ELISA readout)
Assay type: cell-based
Settings: 25 ng/mL LPS then nigericin
Procedure, shortened: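 THP-1 cells differentiated with 5 ng/mL PMA for 40 h, primed in serum-free medium with 25 ng/mL LPS for 2 h, then compound (0.5% DMSO) for 1 h before nigericin for 2 h at 37°C. Supernatant IL-1β quantified by ELISA; normalized to high (LPS + 5 µM nigericin) and low (LPS only) controls.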

[1] = Homo sapiens, THP-1, inhibition of IL-1β secretion, class column of Table 3
[2] = Homo sapiens, THP-1, inhibition of IL-1β secretion, numeric column of Table 3

Row | SMILES | pIC50 [1] | pIC50 [2] | pIC50 (inhibition of IL-1β secretion, numeric column of Table 3)
1 | CC(C)c1nn(CC(=O)Nc2ncncc2F)c(=O)c2cc(Br)c(F)cc12 [Example 86, 2-(7-bromo-6-fluoro-1-oxo-4-propan-2-ylphthalazin-2-yl)-N-(5-fluoropyrimidin-4-yl)acetamide] | < 4.82 | < 4.30 | 
2 | C[C@H]1C[C@H](Oc2nn(CC(=O)Nc3ncc(F)cn3)c(=O)c3ccc(Br)cc23)C1 [Example 158, 2-[6-bromo-4-(3-trans-methylcyclobutoxy)-1-oxo-phthalazin-2-yl]-N-(5-fluoropyrimidin-2-yl)acetamide] | > 5.00 | 6.51 | 
3 | CC(c1ccc2c(=O)n(CC(=O)Nc3ncncc3F)nc(Br)c2c1)C(F)(F)F (stereo not shown) [Example 18, 2-[4-bromo-1-oxo-6-(1,1,1-trifluoropropan-2-yl)phthalazin-2-yl]-N-(5-fluoropyrimidin-4-yl)acetamide] | 4.82 to 5.00 | 4.97 | 
4 | O=C(Cn1nc(OCC(F)(F)F)c2cc(Br)ccc2c1=O)Nc1ncc(F)cn1 [Example 138, 2-[6-bromo-1-oxo-4-(2,2,2-trifluoroethoxy)phthalazin-2-yl]-N-(5-fluoropyrimidin-2-yl)acetamide] | 4.82 to 5.00 | 4.95 | 
5 | N#Cc1cnc(NC(=O)Cn2nc(C(F)F)c3c(F)c(Br)ccc3c2=O)nc1 [Example 133] | > 5.00 | 6.96 | 
6 | O=C(Cn1nc(C(F)F)c2cc(C(F)(F)F)ccc2c1=O)Nc1ncc(F)cn1 [Example 25, 2-[4-(difluoromethyl)-1-oxo-6-(trifluoromethyl)phthalazin-2-yl]-N-(5-fluoropyrimidin-2-yl)acetamide] | > 5.00 | 6.16 | 
7 | CC(C)c1nn(CC(=O)NC2CCC(=O)N(C)C2)c(=O)c2ccc(Br)cc12 (stereo not shown) [Example 66, 2-(6-bromo-1-oxo-4-propan-2-ylphthalazin-2-yl)-N-(1-methyl-6-oxopiperidin-3-yl)acetamide] | > 5.00 | 5.61 | 
8 | Cc1cnn(C)c1NC(=O)Cn1nc(C(C)C)c2cc(Br)ccc2c1=O [Example 63, 2-(6-bromo-1-oxo-4-propan-2-ylphthalazin-2-yl)-N-(2,4-dimethylpyrazol-3-yl)acetamide] | 4.82 to 5.00 | 4.89 | 
9 | O=C(Cn1nc(CF)c2ccc(Br)cc2c1=O)Nc1ncc(F)cn1 [Example 143, 2-[7-bromo-4-(fluoromethyl)-1-oxophthalazin-2-yl]-N-(5-fluoropyrimidin-2-yl)acetamide] | > 5.00 | 5.61 | 
10 | CC(C)c1nn(CC(=O)N[C@@H]2CCCN(C3CCC3)C2)c(=O)c2ccc(Br)cc12 [Example 106, 2-(6-bromo-1-oxo-4-propan-2-ylphthalazin-2-yl)-N-[(3R)-1-cyclobutylpiperidin-3-yl]acetamide] | > 5.00 | 7.24 | 
11 | O=C(Cn1nc(OC2CCC2)c2cc(Br)ccc2c1=O)Nc1ncc(F)cn1 [Example 153, 2-(6-bromo-4-cyclobutyloxy-1-oxophthalazin-2-yl)-N-(5-fluoropyrimidin-2-yl)acetamide] | > 5.00 | 6.83 | 
12 | CCN1CCC[C@@H](NC(=O)Cn2nc(C(C)C)c3cc(Br)ccc3c2=O)C1 [Example 3, (R)-2-(6-Bromo-4-isopropyl-1-oxophthalazin-2(1H)-yl)-N-(1-ethylpiperidin-3-yl)acetamide] | > 5.00 | 6.80 | 
13 | CC(C)c1nn(CC(=O)Nc2ncncc2F)c(=O)c2ccc(Br)nc12 [Example 22, 2-(2-bromo-5-oxo-8-propan-2-ylpyrido[2,3-d]pyridazin-6-yl)-N-(5-fluoropyrimidin-4-yl)acetamide] | > 5.00 | 6.40 | 
14 | CC(C)c1nn(CC(=O)Nc2c(F)cnn2C)c(=O)c2ccc(Br)cc12 [Example 50, 2-(6-bromo-1-oxo-4-propan-2-ylphthalazin-2-yl)-N-(4-fluoro-2-methylpyrazol-3-yl)acetamide] | < 4.82 | 4.56 | 
15 | O=C(Cn1nc(OC2COC2)c2cc(Br)ccc2c1=O)Nc1ncc(F)cn1 [Example 161] | > 5.00 | 5.44 | 
16 | CCOc1nn(CC(=O)Nc2ncc(F)cn2)c(=O)c2ccc(Br)cc12 [Example 154, 2-(6-bromo-4-ethoxy-1-oxophthalazin-2-yl)-N-(5-fluoropyrimidin-2-yl)acetamide] | > 5.00 | 6.17 | 

Next, values leading:

Row | pIC50 [1] | pIC50 [2] | pIC50 (inhibition of IL-1β secretion, numeric column of Table 3) | SMILES
17 | > 5.00 | 5.20 |  | CC(C)c1nn(CC(=O)Nc2ncncc2F)c(=O)c2ccc(OC(F)(F)F)cc12 [Example 15, N-(5-fluoropyrimidin-4-yl)-2-[1-oxo-4-propan-2-yl-6-(trifluoromethoxy)phthalazin-2-yl]acetamide]
18 | > 5.00 | 5.97 |  | CC(C)c1nn(CC(=O)Nc2nc(F)ccc2F)c(=O)c2ccc(Br)cc12 [Example 40, 2-(6-bromo-1-oxo-4-propan-2-ylphthalazin-2-yl)-N-(3,6-difluoropyridin-2-yl)acetamide]
19 | > 5.00 | 6.92 |  | O=C(Cn1nc(OC2CC2)c2cc(C3CC3)ccc2c1=O)Nc1ncc(F)cn1 [Example 173, 2-(6-cyclopropyl-4-cyclopropyloxy-1-oxophthalazin-2-yl)-N-(5-fluoropyrimidin-2-yl)acetamide]
20 | > 5.00 | 6.71 |  | CC(F)c1nn(CC(=O)Nc2ncccn2)c(=O)c2ccc(Br)cc12 (stereo not shown) [Example 80, 2-[6-bromo-4-(1-fluoroethyl)-1-oxo-phthalazin-2-yl]-N-pyrimidin-2-yl-acetamide]
21 | > 5.00 | 5.98 |  | CC(C)c1nn(CC(=O)NCC2CCC2)c(=O)c2ccc(Br)cc12 [Example 127, 2-(6-bromo-1-oxo-4-propan-2-ylphthalazin-2-yl)-N-(cyclobutylmethyl)acetamide]
22 | > 5.00 | 6.10 |  | CC(C)c1nn(CC(=O)Nc2ccc(C3CC3)cn2)c(=O)c2ccc(Br)cc12 [Example 111, 2-(6-bromo-1-oxo-4-propan-2-ylphthalazin-2-yl)-N-(5-cyclopropylpyridin-2-yl)acetamide]
23 | > 5.00 | 5.92 |  | CC(C)c1nn(CC(=O)Nc2ccc(C(F)(F)F)nc2)c(=O)c2ccc(Br)cc12 [Example 45, 2-(6-bromo-1-oxo-4-propan-2-ylphthalazin-2-yl)-N-[6-(trifluoromethyl)pyridin-3-yl]acetamide]
24 | > 5.00 | 6.37 |  | O=C(Cn1nc(C(F)F)c2cc(Br)ccc2c1=O)Nc1ncc(Cl)cn1 [Example 135]
25 | > 5.00 |  | 6.21 | O=C(Cn1nc([C@H]2C[C@H]2F)c2cc(Br)ccc2c1=O)Nc1ncc(F)cn1 (single isomer, unassigned) [Example 165, 2-[6-bromo-4-[2-cis-fluorocyclopropyl]-1-oxophthalazin-2-yl]-N-(5-fluoropyrimidin-2-yl)acetamide]
26 | > 5.00 | 6.85 |  | O=C(Cn1nc(OC2CC2)c2cc(Br)ccc2c1=O)N[C@@H]1CCCN(C2CC2)C1 [Example 178]
27 | > 5.00 | 5.55 |  | CC(C)c1nn(CC(=O)Nc2nc(Cl)ccc2F)c(=O)c2ccc(Br)cc12 [Example 36, 2-(6-bromo-1-oxo-4-propan-2-ylphthalazin-2-yl)-N-(6-chloro-3-fluoropyridin-2-yl)acetamide]
28 | > 5.00 | 6.75 |  | O=C(Cn1nc(C(F)F)c2c(F)c(C3CC3)ccc2c1=O)Nc1ncc(F)cn1 [Example 184, 2-[6-cyclopropyl-4-(difluoromethyl)-5-fluoro-1-oxophthalazin-2-yl]-N-(5-fluoropyrimidin-2-yl)acetamide]
29 | > 5.00 | 6.86 |  | O=C(Cn1nc(C(F)F)c2c(F)c(Br)ccc2c1=O)Nc1ncccn1 [Example 27, 2-[6-bromo-4-(difluoromethyl)-5-fluoro-1-oxophthalazin-2-yl]-N-pyrimidin-2-ylacetamide]
30 | > 5.00 | 6.41 |  | Cc1cc(NC(=O)Cn2nc(C(C)C)c3cc(Br)ccc3c2=O)n(C)n1 [Example 64, 2-(6-bromo-1-oxo-4-propan-2-ylphthalazin-2-yl)-N-(2,5-dimethylpyrazol-3-yl)acetamide]
31 | > 5.00 | 6.34 |  | CC(C)c1nn(CC(=O)Nc2ccc(C#N)cc2F)c(=O)c2ccc(Br)cc12 [Example 59, 2-(6-bromo-1-oxo-4-propan-2-ylphthalazin-2-yl)-N-(4-cyano-2-fluorophenyl)acetamide]
32 | > 5.00 | 5.06 |  | CC(C)(C)OC(=O)N1CCC[C@@H](NC(=O)Cn2nc(OC3CC3)c3cc(Br)ccc3c2=O)C1 [Example 175, tert-butyl (3R)-3-[[2-(6-bromo-4-cyclopropyloxy-1-oxophthalazin-2-yl)acetyl]amino]piperidine-1-carboxylate]
33 | > 5.00 | 6.76 |  | Cc1nn(CC(=O)Nc2ncc(F)cn2)c(=O)c2ccc(Br)c(F)c12 [Example 145]
34 | > 5.00 | 6.84 |  | CC(C)c1nn(CC(=O)Nc2ncncc2F)c(=O)c2ccc(Br)c(F)c12 [Example 9, 2-(6-Bromo-5-fluoro-4-isopropyl-1-oxophthalazin-2(1H)-yl)-N-(5-fluoropyrimidin-4-yl)acetamide]
35 | > 5.00 | 6.79 |  | CC(C)c1nn(CC(=O)Nc2ncc(C(F)(F)F)cc2F)c(=O)c2ccc(Br)cc12 [Example 41, 2-(6-bromo-1-oxo-4-propan-2-ylphthalazin-2-yl)-N-[3-fluoro-5-(trifluoromethyl)pyridin-2-yl]acetamide]
